Among the data in BindingDB's records for doi:10.1007/BF00173012 (Sandoz Pharma, 1994) are Ki values, retold here.

*1 amine or outer side, *2 acyl side, *3 side chain or, on linkers, in order; H or OH if unused. Where a SMILES comes first, the peptide text is derived from it. Bridges are numbered along the chain shown (N, C = ends). [ ]: non-standard residue; d: D form. ξ: configuration not given here. Phe(4-Cl) = N[C@@H](Cc1ccc(Cl)cc1)C(=O)O; d2Nal = N[C@H](Cc1ccc2ccccc2c1)C(=O)O; dNMeF = CN[C@H](Cc1ccccc1)C(=O)O; X1 = O=C(C(N[*:1])S[*:3])[*:2]; dNMeA = CN[C@H](C)C(=O)O; Ahp = NCCCCCCC(=O)O; ξC = NC(CS)C(=O)O; Mpa = O=C(O)CCS

Test [1] deals with Somatostatin receptor type 3 (Mus musculus, UniProt P30935).
Test [2] has as its target Somatostatin receptor type 4 (Mus musculus, UniProt P49660).
Test [3] concerns the target T1, Somatostatin receptor type 5 (Rattus norvegicus, UniProt P30938).
T1 sequence (P30938 whole entry): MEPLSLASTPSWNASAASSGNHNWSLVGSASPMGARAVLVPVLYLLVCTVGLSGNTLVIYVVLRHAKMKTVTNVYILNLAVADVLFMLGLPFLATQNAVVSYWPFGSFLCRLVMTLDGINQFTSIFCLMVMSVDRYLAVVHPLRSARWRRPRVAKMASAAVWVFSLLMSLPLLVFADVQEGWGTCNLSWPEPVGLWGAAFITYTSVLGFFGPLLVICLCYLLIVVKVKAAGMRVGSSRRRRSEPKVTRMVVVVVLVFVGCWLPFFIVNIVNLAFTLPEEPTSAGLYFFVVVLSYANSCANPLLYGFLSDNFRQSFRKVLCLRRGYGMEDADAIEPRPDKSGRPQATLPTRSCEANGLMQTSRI

Test [4] concerns the target Somatostatin receptor type 2 (Mus musculus, UniProt P30875).
Test [5] has as its target Somatostatin receptor type 1 (Homo sapiens, UniProt P30872).

Sequence of Somatostatin receptor type 4 (P49660 whole entry): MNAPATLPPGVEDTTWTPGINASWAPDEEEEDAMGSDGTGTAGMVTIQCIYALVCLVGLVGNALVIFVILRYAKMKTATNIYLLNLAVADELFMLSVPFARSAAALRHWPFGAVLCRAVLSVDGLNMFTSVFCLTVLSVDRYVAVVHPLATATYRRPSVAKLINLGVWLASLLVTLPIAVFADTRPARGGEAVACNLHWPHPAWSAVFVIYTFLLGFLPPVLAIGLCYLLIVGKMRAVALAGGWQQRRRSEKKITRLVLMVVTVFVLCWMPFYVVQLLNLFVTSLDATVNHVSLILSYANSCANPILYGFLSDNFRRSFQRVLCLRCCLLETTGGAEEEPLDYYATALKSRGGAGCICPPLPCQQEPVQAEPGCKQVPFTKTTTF
Sequence of Somatostatin receptor type 3 (P30935 whole entry): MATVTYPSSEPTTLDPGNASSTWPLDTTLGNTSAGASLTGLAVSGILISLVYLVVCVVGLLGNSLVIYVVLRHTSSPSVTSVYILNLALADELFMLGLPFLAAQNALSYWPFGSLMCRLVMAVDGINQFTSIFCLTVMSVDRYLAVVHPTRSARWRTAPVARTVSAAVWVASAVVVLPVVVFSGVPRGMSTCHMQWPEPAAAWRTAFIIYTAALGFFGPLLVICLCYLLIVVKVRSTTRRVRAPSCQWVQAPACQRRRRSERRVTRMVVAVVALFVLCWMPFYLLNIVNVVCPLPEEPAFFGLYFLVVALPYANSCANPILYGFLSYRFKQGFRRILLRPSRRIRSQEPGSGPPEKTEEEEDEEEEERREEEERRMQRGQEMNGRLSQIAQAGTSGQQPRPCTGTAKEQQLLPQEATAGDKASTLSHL
Sequence of Somatostatin receptor type 2 (P30875 whole entry): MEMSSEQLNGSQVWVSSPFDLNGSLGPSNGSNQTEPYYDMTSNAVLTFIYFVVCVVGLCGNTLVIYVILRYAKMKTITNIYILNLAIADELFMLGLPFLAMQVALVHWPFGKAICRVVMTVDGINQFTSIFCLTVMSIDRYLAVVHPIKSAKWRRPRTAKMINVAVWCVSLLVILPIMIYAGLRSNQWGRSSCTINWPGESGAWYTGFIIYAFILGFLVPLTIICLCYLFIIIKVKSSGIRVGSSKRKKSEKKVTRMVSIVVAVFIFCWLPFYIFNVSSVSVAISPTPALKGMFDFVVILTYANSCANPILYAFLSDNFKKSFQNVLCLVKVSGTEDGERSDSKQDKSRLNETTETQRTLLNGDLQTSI
Sequence of Somatostatin receptor type 1 (P30872 whole entry): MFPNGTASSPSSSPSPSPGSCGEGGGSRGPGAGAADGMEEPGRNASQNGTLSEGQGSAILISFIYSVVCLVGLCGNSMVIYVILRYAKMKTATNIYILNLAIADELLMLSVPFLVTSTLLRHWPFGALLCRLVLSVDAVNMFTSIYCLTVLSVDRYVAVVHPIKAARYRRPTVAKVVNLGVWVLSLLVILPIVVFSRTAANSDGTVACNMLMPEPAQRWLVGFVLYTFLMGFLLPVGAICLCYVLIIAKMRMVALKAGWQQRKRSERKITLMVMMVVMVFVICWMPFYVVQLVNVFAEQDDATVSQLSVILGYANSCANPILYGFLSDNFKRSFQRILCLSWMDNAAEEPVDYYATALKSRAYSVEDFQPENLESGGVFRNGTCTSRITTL

`C[C@@H](O)[C@@H]1NC(=O)[C@H](CCCCN)NC(=O)[C@@H](Cc2c[nH]c3ccccc23)NC(=O)[C@H](Cc2ccccc2)NC(=O)[C@@H]2CSSCC(NC1=O)C(=O)NCCCCCCC(=O)N2` [(1R,4S,7S,10R,13S,16R)-4-[(R)-1-Hydroxyethyl]-7-(4-aminobutyl)-10-(1H-indole-3-ylmethyl)-13-benzyl-28,29-dithia-2,5,8,11,14,17,25-heptaazabicyclo[14.10.4]triacontane-3,6,9,12,15,18,26-heptone] (cyclo([Ahp]CF[dW]KT[ξC]); disulfide 2-7): the inhibitory constant (Ki) in test [1] was 0.07 nM; in test [2] it was 1000 nM; in test [3], 1.2 nM.

For `CC(C)[C@H](NC(=O)[C@H](CCCCN)NC(=O)[C@@H](Cc1c[nH]c2ccccc12)NC(=O)[C@H](Cc1ccc(O)cc1)NC(=O)[C@H](Cc1ccccc1)NC(=O)[C@H](N)Cc1ccccc1)C(=O)N[C@@H](Cc1ccccc1)C(=O)N[C@H](C(N)=O)[C@@H](C)O` [BIM-23058] (H-[dF]FY[dW]KVFT-NH2), the Ki stood at 0.03 nM in test [1] and 77.6 nM in test [2].

For `CC(C)[C@@H]1NC(=O)[C@H](CCCCN)NC(=O)[C@@H](Cc2c[nH]c3ccccc23)NC(=O)[C@H](Cc2ccc(O)cc2)NC(=O)[C@@H](NC(=O)[C@H](N)Cc2ccccc2)CSSC[C@@H](C(=O)N[C@@H](Cc2c[nH]c3ccccc23)C(N)=O)NC1=O` [CAS_71306] (H-[dF]CY[dW]KVCW-NH2; disulfide 2-7), the Ki in test [1] was 22.9 nM; in test [2], 170 nM; in test [4] it was 0.1 nM.

Consider `CC(C)[C@@H]1NC(=O)[C@H](CCCCN)NC(=O)[C@@H](Cc2c[nH]c3ccccc23)NC(=O)[C@H](Cc2ccc(O)cc2)NC(=O)CCSSC(C(=O)N[C@@H](Cc2ccccc2)C(N)=O)NC1=O` (some centres not stated) [CAS_117580-24-2] ([Mpa]Y[dW]KV[X1]F-NH2; disulfide 1-6), for which the inhibitory constant (Ki) in test [1] was determined as 245 nM; in test [2] it was 363 nM; in test [4] it was 355 nM; in test [3], 3.89 nM.

For the compound `C[C@@H](O)[C@H](NC(=O)[C@H](Cc1ccccc1)NC(=O)[C@@H](NC(=O)[C@H](CCCCN)NC(=O)[C@@H](Cc1c[nH]c2ccccc12)NC(=O)[C@H](Cc1ccccc1)NC(=O)[C@H](Cc1ccccc1)NC(=O)[C@H](N)Cc1ccccc1)[C@@H](C)O)C(N)=O` [CAS_133073-82-2] (H-[dF]FF[dW]KTFT-NH2), the inhibition constant Ki in test [1] stood at 0.41 nM; in test [2], 18.2 nM.

As for `CC(C)[C@H](NC(=O)[C@H](CCCCN)NC(=O)[C@@H](Cc1c[nH]c2ccccc12)NC(=O)[C@H](Cc1ccc(O)cc1)NC(=O)[C@H](Cc1ccccc1)NC(=O)[C@H](N)Cc1ccccc1)C(=O)N[C@@H](Cc1ccccc1)C(=O)N[C@H](Cc1ccc2ccccc2c1)C(N)=O` [CAS_150155-61-6] (H-[dF]FY[dW]KVF[d2Nal]-NH2), the Ki in test [1] is 0.01 nM; in test [5] it was 1000 nM; in test [2], 158 nM; in test [4], more than 10000 nM; in test [3], 42.6 nM.

As to `C[C@@H](O)[C@@H]1NC(=O)[C@H](Cc2ccc(O)cc2)NC(=O)[C@H]([C@@H](C)O)NC(=O)[C@H](CCCCN)NC(=O)[C@H](Cc2c[nH]c3ccccc23)NC(=O)[C@H](Cc2ccccc2)NC(=O)[C@H](Cc2ccccc2)NC(=O)[C@H](CC(N)=O)NC(=O)[C@H](CCCCN)NC(=O)CCCCC[C@@H](C(=O)O)NC(=O)[C@H](CO)NC1=O` [CGP-23996], the Ki stood at 0.6 nM in test [1], 100 nM in test [5], 1.41 nM in test [2] and 1 nM in test [4].

In turn, `C[C@@H](O)[C@H](NC(=O)[C@@H]1CSSC[C@H](NC(=O)[C@H](N)Cc2ccc3ccccc3c2)C(=O)N[C@@H](Cc2ccc(O)cc2)C(=O)N[C@H](Cc2c[nH]c3ccccc23)C(=O)N[C@@H](CCCCN)C(=O)N[C@@H]([C@@H](C)O)C(=O)N1)C(N)=O` [D-Nal-c[Cys-Tyr-D-Trp-Lys-Thr-Cys]-Thr-NH2] displayed a Ki in test [4] of 0.01 nM.

As for `CC(C)[C@H](NC(=O)[C@H](CCCCN)NC(=O)[C@@H](Cc1c[nH]c2ccccc12)NC(=O)[C@H](Cc1ccc(O)cc1)NC(=O)[C@H](Cc1ccccc1)NC(=O)[C@H](N)Cc1ccccc1)C(=O)N[C@@H](Cc1ccccc1)C(=O)N[C@H](Cc1ccccc1)C(N)=O` [D-Phe-Phe-Tyr-D-Trp-Lys-Val-Phe-D-Phe-NH2] (H-[dF]FY[dW]KVF[dF]-NH2), the Ki in test [2] came out at 251 nM; in test [3], 3.31 nM.

`C[C@@H](O)[C@@H]1NC(=O)[C@H](Cc2ccccc2)NC(=O)[C@H]([C@@H](C)O)NC(=O)[C@H](CCCCN)NC(=O)[C@@H](Cc2c[nH]c3ccccc23)NC(=O)[C@H](Cc2ccccc2)NC(=O)[C@H](Cc2ccc(Cl)cc2)NC(=O)[C@H](CC(N)=O)NC(=O)[C@H](CCCCN)NC(=O)[C@@H](N)CSSC[C@@H](C(=O)O)NC(=O)[C@H](CO)NC1=O` [EC5-21] (H-CKN[Phe(4-Cl)]F[dW]KTFTSC-OH; disulfide 1-12): the Ki in test [2] came to 1.81 nM; in test [4] it was 0.01 nM.

On to `C[C@@H](O)[C@@H]1NC(=O)[C@H](CCCCN)NC(=O)[C@@H](Cc2c[nH]c3ccccc23)NC(=O)[C@H](Cc2c[nH]c3ccccc23)NC(=O)[C@H](Cc2ccccc2)NC(=O)CCCCCCNC(=O)[C@H](Cc2ccccc2)NC1=O` [L-362855] (cyclo([Ahp]FW[dW]KTF)), for which the inhibition constant Ki worked out at 63.1 nM in test [2] and 0.01 nM in test [3].

`C[C@H](O)[C@H]1NC(=O)[C@H](CCCCN)NC(=O)[C@@H](Cc2c[nH]c3ccccc23)NC(=O)[C@@H](Cc2ccccc2)NC(=O)[C@@H](C)N(C)C(=O)[C@@H](Cc2ccccc2)N(C)C1=O` [N-Methylcyclo(D-Ala-D-Phe-D-Trp-L-Lys-D-Thr-N-methyl-D-Phe-)] (cyclo(K[dT][dNMeF][dNMeA][dF][dW])): the inhibition constant Ki in test [2] worked out at 1000 nM; in test [3], 407 nM.

A word on the Ki: it is a dissociation constant, usually derived from enzyme kinetics or from competition with a known ligand.
